Reference: PMC11544072 (Heliyon, 2024)

Target: CYP154C7
Experiment: UV/Vis spectral titration, type I spin shift
Type: binding, Streptomyces sp. PAMC26508

Compound | Kd [nM]
C[C@]12CC[C@H]3[C@@H](CCC4=CC(=O)CC[C@@]43C)[C@@H]1CC[C@@H]2O [testosterone] | 304 ± 70
C[C@]12CCC(=O)C=C1CC[C@@H]1[C@@H]2C(=O)C[C@@]2(C)[C@H]1CC[C@]2(O)C(=O)CO [cortisone] | 2000 ± 340
C[C@]12CCC(=O)C=C1CC[C@@H]1[C@@H]2CC[C@]2(C)C(=O)CC[C@@H]12 [androstenedione] | 201 ± 43
